In US20230203081A1, “LINCOSAMIDE ANTIBIOTICS AND USES THEREOF” (President and Fellows of Harvard College, priority 2020, published 2023):
Converted amounts (≈) assume the structure as drawn. Like-named read-outs stand apart in the source and are kept apart here.

Key:
Format in all cases: cell-based
S. aureus BAA 977 iErmA = experiment: microbe, parasite or virus in culture; settings: Staphylococcus aureus
Summary of the method: (§1)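 Per CLSI, MICs by broth microdilution or agar dilution; strains other than streptococci and anaerobes were sub-cultured overnight at 35° C on blood agar, with a final broth inoculum of 5×10^5 CFU/mL.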

S. aureus MP-549 msrA = experiment: microbe, parasite or virus in culture; settings: Staphylococcus aureus, MP549MSRA
Summary of the method: as §1

[1] = test system: E. coli MP-74 LptD mutant; experiment: MIC (broth microdilution or agar dilution, CLSI); settings: Escherichia coli
Summary of the method: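 MICs follow CLSI broth microdilution or agar dilution, testing typically 128-0.06 μg/mL compound at 2.5% final DMSO, in triplicate with clindamycin comparator. Non-anaerobic strains use CaMHB at a final inoculum of 5×10^5 CFU/mL; anaerobes like C. difficile and C. scindens use specialized procedures.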

E. coli ATCC 25922 = experiment: MIC (broth microdilution or agar dilution, CLSI); settings: Escherichia coli, ATCC25922, read-out: MIC
Summary of the method: as §1

E. coli MP-9 ΔTolC = experiment: MIC (broth microdilution or agar dilution, CLSI); settings: Escherichia coli
Summary of the method: as §1

E. faecalis ATCC 29212 = experiment: MIC (broth microdilution or agar dilution, CLSI); settings: Enterococcus faecalis, read-out: MIC
Summary of the method: as §1

[2] = test system: E. faecalis MMX 847; cErmB; experiment: MIC (broth microdilution or agar dilution, CLSI); settings: Enterococcus faecalis, cErmB, read-out: MIC
Summary of the method: as §1

H. influenzae ATCC 49247 = experiment: MIC (broth microdilution or agar dilution, CLSI); settings: Haemophilus influenzae, ATCC49247; H. influenzae ATCC 49247; read-out: MIC
Summary of the method: as §1

S. aureus ATCC 29213 = experiment: MIC (broth microdilution or agar dilution, CLSI); settings: Staphylococcus aureus, read-out: MIC
Summary of the method: as §1

S. aureus MMX 3035 cErmA = experiment: MIC (broth microdilution or agar dilution, CLSI); settings: Staphylococcus aureus, MMX3035CERMA, read-out: MIC
Summary of the method: as §1

S. pneumoniae ATCC 49619 = experiment: MIC (broth microdilution or agar dilution, CLSI); settings: Streptococcus pneumoniae, read-out: MIC
Summary of the method: as §1

[3] = test system: S. pneumoniae MMX 3028 cErmB; experiment: MIC (broth microdilution or agar dilution, CLSI); settings: Streptococcus pneumoniae, MMX3028CERMB, read-out: MIC
Summary of the method: as §1

[4] = test system: S. pneumoniae MMX 3031 cMefA; experiment: MIC (broth microdilution or agar dilution, CLSI); settings: Streptococcus pneumoniae, MMX3031CMEFA, read-out: MIC
Summary of the method: as §1

S. pyogenes ATCC 19615 = experiment: MIC (broth microdilution or agar dilution, CLSI); settings: Streptococcus pyogenes, read-out: MIC
Summary of the method: as §1

[5] = test system: S. pyogenes MMX 946; cErmB; experiment: MIC (broth microdilution or agar dilution, CLSI); settings: Streptococcus pyogenes, cErmB, read-out: MIC
Summary of the method: as §1

E. coli ΔTolC = experiment: microbe, parasite or virus in culture; settings: Escherichia coli, E. coli HAV#038; ΔTolC
Summary of the method: as §1

[6] = test system: broad panel of different clinical isolates; experiment: microbe, parasite or virus in culture
Summary of the method: as §1

E. coli LptD = experiment: MIC (broth microdilution or agar dilution, CLSI); settings: Escherichia coli, E. coli HAV#040; LptD; read-out: MIC
Summary of the method: as §1

K. oxytoca Clinical = experiment: MIC (broth microdilution or agar dilution, CLSI); settings: Klebsiella oxytoca; K. oxytoca HAV#450; Clinical; read-out: MIC
Summary of the method: as §1

[7] = test system: S. aureus ATCC BAA-1707 (MRSA); experiment: MIC (broth microdilution or agar dilution, CLSI); settings: Staphylococcus aureus; S. aureus HAV#016, ATCC BAA-1707; MRSA; read-out: MIC
Summary of the method: as §1

S. aureus hVISA = experiment: MIC (broth microdilution or agar dilution, CLSI); settings: Staphylococcus aureus; S. aureus HAV#204, hVISA; read-out: MIC
Summary of the method: as §1

S. pneumoniae ATCC 6303 = experiment: MIC (broth microdilution or agar dilution, CLSI); settings: Streptococcus pneumoniae, ATCC6303; S. pneumoniae HAV#351, ATCC 6303; read-out: MIC
Summary of the method: as §1

[8] = ATCC29212, E. faecalis ATCC 29212
[9] = ATCC29213, S. aureus ATCC 29213
[10] = ATCC49619, S. pneumoniae ATCC 49619
[11] = ATCC19615, S. pyogenes ATCC 19615

`CSC1O[C@H]([C@H](NC(=O)[C@@H]2[C@@H]3OCC[C@@H](C4CCCC4)C[C@H]3CN2C)[C@H](C)Cl)CC(O)[C@H]1O` (some centres unmarked) [FSA-513001b] was tested, and the MIC (S. aureus BAA 977 iErmA; BAA977) was 0.12 µg/mL (≈ 0.238 µM), the MIC (S. aureus MP-549 msrA; S. aureus MP-549 msrA) was 0.12 µg/mL (≈ 0.238 µM) and the MIC [1] was 4 µg/mL (≈ 7.92 µM). For the same molecule, the MIC (E. coli ATCC 25922; E. coli ATCC 25922) was 64 µg/mL (≈ 127 µM), the MIC (E. coli MP-9 ΔTolC) was 2 µg/mL (≈ 3.96 µM) and the MIC (E. faecalis ATCC 29212; [8]) was 0.12 µg/mL (≈ 0.238 µM). For the same molecule, the MIC ([2]; E. faecalis MMX 847) was 16 µg/mL (≈ 31.7 µM), the MIC (H. influenzae ATCC 49247) was 4 µg/mL (≈ 7.92 µM) and the MIC (S. aureus ATCC 29213; [9]) was 0.12 µg/mL (≈ 0.238 µM). For the same molecule, the MIC (S. aureus MMX 3035 cErmA; S. aureus MMX 3035 cErmA) was 32 µg/mL (≈ 63.4 µM), the MIC (S. pneumoniae ATCC 49619; [10]) was 0.06 µg/mL (≈ 0.119 µM) and the MIC ([3]; S. pneumoniae MMX 3028 cErmB) was 16 µg/mL (≈ 31.7 µM). It also gave an MIC ([4]; S. pneumoniae MMX 3031 cMefA) of at most 0.06 µg/mL, an MIC (S. pyogenes ATCC 19615; [11]) of 0.06 µg/mL (≈ 0.119 µM) and an MIC ([5]; S. pyogenes MMX 946) of 16 µg/mL (≈ 31.7 µM).

`Cc1onc(-c2ccccc2)c1C(=O)N[C@@H]1C(=O)N2[C@@H]1SC(C)(C)[C@@H]2C(=O)O` [Oxacillin] was tested, and the MIC (E. coli ΔTolC) was 16 µg/mL (≈ 39.9 µM), the MIC (S. aureus BAA 977 iErmA; BAA-977 / MRSA) was 0.5 µg/mL (≈ 1.25 µM) and the MIC (S. aureus MP-549 msrA; S. aureus HAV#032, MP-549, MSR(A)) was 64 µg/mL (≈ 159 µM). The MIC ([6]; Enterococcus faecalis, VRE, E. faecalis HAV#251, Clinical VRE) was over 64 µg/mL, the MIC ([6]; Staphylococcus aureus, MRSA, S. aureus HAV#0107, MRSA Col(Colindale, England)) was over 64 µg/mL and the MIC ([6]; Staphylococcus aureus, VISA, S. aureus HAV#203, Clinical (VISA)) was 64 µg/mL (≈ 159 µM). The MIC (E. coli ATCC 25922; E. coli HAV#006, ATCC 25922) was over 64 µg/mL, the MIC (E. coli LptD) was 4 µg/mL (≈ 9.96 µM) and the MIC (E. faecalis ATCC 29212; ATCC29212, E. faecalis HAV#005, ATCC 29212) was 32 µg/mL (≈ 79.7 µM). For the same molecule, the MIC ([2]; E. faecalis HAV#036, MMX 847, mac-resistant) was 64 µg/mL (≈ 159 µM), the MIC (K. oxytoca Clinical) was over 64 µg/mL and the MIC (S. aureus ATCC 29213; ATCC29213, S. aureus HAV#001, ATCC 29213, MP-549) was 0.5 µg/mL (≈ 1.25 µM). The MIC [7] was over 64 µg/mL, the MIC (S. aureus MMX 3035 cErmA; S. aureus HAV#031, MMX 3035, cErmA) was over 64 µg/mL and the MIC (S. aureus hVISA) was 64 µg/mL (≈ 159 µM). The MIC (S. pneumoniae ATCC 49619; ATCC49619, S. pneumoniae HAV#003, ATCC 49619) was 2 µg/mL (≈ 4.98 µM), the MIC (S. pneumoniae ATCC 6303) was 0.5 µg/mL (≈ 1.25 µM) and the MIC ([3]; S. pneumoniae HAV#033, MMX 3028, cErmB) was 2 µg/mL (≈ 4.98 µM). For the same molecule, the MIC ([4]; S. pneumoniae HAV#034, MMX 3031, cMefA) was 16 µg/mL (≈ 39.9 µM), the MIC (S. pyogenes ATCC 19615; ATCC19615, S. pyogenes HAV#004, ATCC 19615) was 0.125 µg/mL (≈ 0.311 µM) and the MIC ([5]; S. pyogenes HAV#035, MMX 946, mac-resistant) was 0.25 µg/mL (≈ 0.623 µM).

`CSC1O[C@H]([C@H](NC(=O)[C@@H]2[C@@H]3OCC[C@H](C4CCCCC4)C[C@H]3CN2C)[C@H](C)Cl)CC(O)[C@H]1O` (some centres unmarked) [FSA-513002a] showed an MIC [1] of 64 µg/mL (≈ 123 µM), an MIC (E. coli ATCC 25922; E. coli ATCC 25922) of over 64 µg/mL and an MIC (E. coli MP-9 ΔTolC) of 64 µg/mL (≈ 123 µM). For the same molecule, the MIC (E. faecalis ATCC 29212; [8]) was 2 µg/mL (≈ 3.85 µM), the MIC (H. influenzae ATCC 49247) was over 64 µg/mL and the MIC (S. aureus ATCC 29213; [9]) was 1 µg/mL (≈ 1.93 µM). The MIC (S. pneumoniae ATCC 49619; [10]) was 0.5 µg/mL (≈ 0.963 µM) and the MIC (S. pyogenes ATCC 19615; [11]) was 1 µg/mL (≈ 1.93 µM).

For `CSC1O[C@H]([C@H](NC(=O)[C@H]2NC[C@@H]3C[C@@H](CC(C)C)CCO[C@H]32)[C@H](C)Cl)CC(O)[C@H]1O` (some centres unmarked) [FSA-513018a], the MIC (S. aureus BAA 977 iErmA; BAA977) was at most 0.06 µg/mL, the MIC (S. aureus MP-549 msrA; S. aureus MP-549 msrA) was at most 0.06 µg/mL and the MIC [1] was 2 µg/mL (≈ 4.17 µM). It also gave an MIC (E. coli ATCC 25922; E. coli ATCC 25922) of 16 µg/mL (≈ 33.4 µM), an MIC (E. coli MP-9 ΔTolC) of 0.5 µg/mL (≈ 1.04 µM) and an MIC (E. faecalis ATCC 29212; [8]) of at most 0.06 µg/mL. For the same molecule, the MIC ([2]; E. faecalis MMX 847) was 2 µg/mL (≈ 4.17 µM), the MIC (H. influenzae ATCC 49247) was 2 µg/mL (≈ 4.17 µM) and the MIC (S. aureus ATCC 29213; [9]) was at most 0.06 µg/mL. For the same molecule, the MIC (S. aureus MMX 3035 cErmA; S. aureus MMX 3035 cErmA) was 8 µg/mL (≈ 16.7 µM), the MIC (S. pneumoniae ATCC 49619; [10]) was at most 0.06 µg/mL and the MIC ([3]; S. pneumoniae MMX 3028 cErmB) was 0.5 µg/mL (≈ 1.04 µM). It also gave an MIC ([4]; S. pneumoniae MMX 3031 cMefA) of at most 0.06 µg/mL, an MIC (S. pyogenes ATCC 19615; [11]) of at most 0.06 µg/mL and an MIC ([5]; S. pyogenes MMX 946) of 0.5 µg/mL (≈ 1.04 µM).
